Patent US20030104489A1, “Functional assay for agonist activation of receptors” (Pfizer Inc., priority 2001, published 2003)

System: D3-G[…]15 cells
Assay: FLIPR assay of intracellular Ca2+ release in D3-Gα15 cells, effect of pre-incubation time at 37 °C (Table 2)
Type: cell-based
Conditions: for Ca2+ response (FLIPR signal), time at 37 °C: 5 min: 5 min pre-incubation at 37 °C; for Ca2+ response (FLIPR signal), time at 37 °C: 5 min / Ca2+ response (FLIPR signal), time at 37 °C: 15 min / % change (elevation of FLIPR signal, 5 min to 15 min pre-incubation at 37 °C): dopamine 100 nM; for Ca2+ response (FLIPR signal), time at 37 °C: 5 min / Ca2+ response (FLIPR signal), time at 37 °C: 15 min: (at or above EC90); for Ca2+ response (FLIPR signal), time at 37 °C: 15 min: 15 min pre-incubation at 37 °C; for % change (elevation of FLIPR signal, 5 min to 15 min pre-incubation at 37 °C): 15 min vs 5 min at 37 °C; for effect of prolonged preincubation at 37 °C on the induced Ca2+ response: ATP via endogenous purinergic receptors, ionomycin as ionophore
Procedure: The HEK293-Gα15 cell line stably expressing the D3 receptor was used to develop Ca^2+-based assay using the FLIPR-based method. Cells were plated in a 96 or 384 well poly-D lysine-coated FLIPR plates for 16-24 hours before the assay. Cells were loaded with cell dye-media solution (media −11 ml, dye-4 μM Fluo-4 AM, Pluronic® acid 22 ul, probenecid −110 ul of 260 mM solution) for 1 hour at 37° C. The plates were washed in the Skatron Embla™ plate washer with assay buffer (NaCl—0.145M, Glucose—0.01 M, KCl—0.005M, MgSO4—0.001 M, HEPES—0.01 M and CaCl2—0.002M) and stabilized for 30 minutes at 25° C. and 37° C., respectively, before starting the experiment. Antagonists were added 15 minutes prior to the agonist addition. The fluorescence intensities were measured using the excitation and emission wavelengths of 488 nm and 520 nm respectively. Data are taken as the average +S.D. of four replicates.
[…]. The elevation of FLIPR signal (in percentage) in 5 min and 15 min pre-incubation at 37° C. is shown.

SMILES | Ca2+ response (FLIPR signal), time at 37 °C: 5 min | Ca2+ response (FLIPR signal), time at 37 °C: 15 min | % change (elevation of FLIPR signal, 5 min to 15 min pre-incubation at 37 °C) [%] | effect of prolonged preincubation at 37 °C on the induced Ca2+ response
NCCc1ccc(O)c(O)c1 [Dopamine, dopamine] | 157 ± 47 | 550 ± 38 | 257 | 
C[C@H](CCC(=O)O)C[C@H](C)C[C@H](C)C(=O)/C=C(\O)[C@H](C)C[C@H](C)C/C=C/[C@@H](C)[C@@H](O)[C@@H](C)[C@@H](O)C[C@@H]1CC[C@@](C)([C@H]2CC[C@@](C)([C@@H](C)O)O2)O1 [ionomycin] | 8042 ± 652 | 8465 ± 132 | 5 | not affected
Nc1ncnc2c1ncn2[C@@H]1O[C@H](COP(=O)(O)OP(=O)(O)OP(=O)(O)O)[C@@H](O)[C@H]1O [ATP] | 2859 ± 630 | 3346 ± 171 | 17 | not affected
